In patent US20230116972A1, “CD38 MODULATORS AND METHODS OF USE THEREOF” (Cytokinetics, Inc., priority 2021, published 2023):

Experiments:
human CD38 = target: T1, human CD38 (Homo sapiens, UniProt P28907); assay: human recombinant CD38 enzyme assay (hydrolysis of NAD+); type: biochemical; settings: human recombinant CD38, 0.4 nM enzyme, 62.5 μM NAD+; read-out: hCD38 BioChem IC50
T1 sequence (P28907 1-300): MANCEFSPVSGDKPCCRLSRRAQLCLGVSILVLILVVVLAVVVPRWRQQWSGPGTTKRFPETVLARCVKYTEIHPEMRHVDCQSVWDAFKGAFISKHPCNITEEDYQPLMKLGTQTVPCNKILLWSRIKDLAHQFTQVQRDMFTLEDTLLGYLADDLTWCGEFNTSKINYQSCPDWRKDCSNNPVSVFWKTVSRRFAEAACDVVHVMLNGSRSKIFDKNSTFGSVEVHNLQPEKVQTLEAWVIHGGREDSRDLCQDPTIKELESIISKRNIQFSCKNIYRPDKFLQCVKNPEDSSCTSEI
Outline: (§1)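 Residual substrate after a one-hour room-temperature incubation of recombinant CD38 with NAD+ and test compound is measured by an ADH/diaphorase coupled resorufin signal (540 nm excitation, 590 nm emission); reduced NAD+ consumption reflects inhibition.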

[1] = target: T2, endogenous CD38 in HL60 cells (Homo sapiens, UniProt P28907); assay: cellular CD38 assay in HL60 cells (cellular NAD levels); type: cell-based; settings: all-trans retinoic acid, 24 hours, read-out: hCD38 HL60 ATRA NAD Cell Diaphorase IC50
T2 construct: endogenous in cells; host or cells: HL60 (leukemic cells, treated with all-trans retinoic acid)
T2 sequence (P28907 1-300): T1 sequence (P28907 1-300)
Outline: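 Endogenous CD38 inhibition is inferred from NAD levels in HL60 cells after 24 h compound exposure at 20000 cells per well. A lytic cycling readout (0.2 U/mL diaphorase, 0.8 U/mL alcohol dehydrogenase, resazurin, FMN, ethanol, 0.2% Triton X-100, Tris/EDTA pH 8.4) ran 60 min at ambient temperature. Resorufin fluorescence was read at 540/590 nm.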

mouse CD38 = target: T3, mouse CD38 (Mus musculus, UniProt P56528); assay: mouse recombinant CD38 enzyme assay (hydrolysis of NAD+); type: biochemical; settings: read-out: mCD38 BioChem IC50
T3 sequence (P56528 1-304): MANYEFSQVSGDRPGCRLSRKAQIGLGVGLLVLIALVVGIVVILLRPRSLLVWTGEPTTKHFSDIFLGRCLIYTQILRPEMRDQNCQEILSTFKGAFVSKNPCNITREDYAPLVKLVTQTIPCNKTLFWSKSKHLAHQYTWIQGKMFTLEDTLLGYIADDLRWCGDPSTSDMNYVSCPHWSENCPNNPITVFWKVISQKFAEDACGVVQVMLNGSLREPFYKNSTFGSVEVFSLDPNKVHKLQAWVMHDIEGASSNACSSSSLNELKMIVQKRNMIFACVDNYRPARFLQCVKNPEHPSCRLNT
Outline: as §1

Row | IC50 (human CD38) | IC50 [1] | IC50 (mouse CD38) | Structure (SMILES)
1 | 9 nM | 1090 nM | 5 nM | Cn1cncc1-c1nc(C(=O)Nc2ccc(C(F)F)nc2)cc(C(C)(C)O)n1 [Compound 159, N-(6-(difluoromethyl)pyridin-3-yl)-6-(2-hydroxypropan-2-yl)-2-(1-methyl-1H-imidazol-5-yl)pyrimidine-4-carboxamide]
2 | 6 nM | 1040 nM | 1.1 nM | COCCOc1cc(-c2cncn2C)nc(C(=O)Nc2ccc(C(F)(F)F)nc2)n1 [Compound 233, 4-(2-methoxyethoxy)-6-(1-methyl-1H-imidazol-5-yl)-N-(6-(trifluoromethyl)pyridin-3-yl)pyrimidine-2-carboxamide]
3 | 8.7 nM | 1140 nM | 9.9 nM | Cc1ncc(-c2cncn2C)nc1C(=O)Nc1ccc(C(F)(F)F)nc1 [Compound 296, 3-methyl-6-(1-methyl-1H-imidazol-5-yl)-N-(6-(trifluoromethyl)pyridin-3-yl)pyrazine-2-carboxamide]
4 | 10.7 nM | 874 nM | 13.8 nM | CC(C)(O)c1ccc(NC(=O)c2ccnc(-n3ccnc3)n2)cn1 [Compound 248, N-(6-(2-hydroxypropan-2-yl)pyridin-3-yl)-2-(1H-imidazol-1-yl)pyrimidine-4-carboxamide]
5 | 5.7 nM | 940 nM | 10.2 nM | CC(C)(O)c1ccc(NC(=O)c2nccc(-n3ccnc3)n2)cc1 [Compound 357, N-(4-(2-hydroxypropan-2-yl)phenyl)-4-(1H-imidazol-1-yl)pyrimidine-2-carboxamide]
6 | 25 nM | 3130 nM | 2 nM | Cn1cncc1-c1nc(C(=O)N[C@H]2CC[C@H](C)CC2)cc(C(F)(F)F)n1 [Compound 153, 2-(1-methyl-1H-imidazol-5-yl)-N-((1r,4r)-4-methylcyclohexyl)-6-(trifluoromethyl)pyrimidine-4-carboxamide]
7 | 678 nM | 11400 nM | 292 nM | Cc1cc(NC(=O)c2cccc(-c3cncs3)n2)ccn1 [Compound 52, N-(2-methylpyridin-4-yl)-6-(thiazol-5-yl)picolinamide]
8 | 2 nM | 267 nM | 1 nM | COc1cc(C(=O)Nc2ccc(C(F)F)nc2)nc(-c2cncn2C)n1 [Compound 129, N-(6-(difluoromethyl)pyridin-3-yl)-6-methoxy-2-(1-methyl-1H-imidazol-5-yl)pyrimidine-4-carboxamide]
9 | 35.4 nM | 1400 nM | 96.3 nM | O=C(N[C@H]1C[C@H](c2ccnc(C(F)(F)F)c2)C1)c1nccc(-n2ccnc2)n1 [Compound 268, 4-(1H-imidazol-1-yl)-N-((1r,3r)-3-(2-(trifluoromethyl)pyridin-4-yl)cyclobutyl)pyrimidine-2-carboxamide]
10 | 53.7 nM | 7290 nM | 8.1 nM | COCCO[C@H]1CC[C@H](NC(=O)c2nc(C)cc(-c3cncn3C)n2)CC1 [Compound 232, N-((1r,4r)-4-(2-methoxyethoxy)cyclohexyl)-4-methyl-6-(1-methyl-1H-imidazol-5-yl)pyrimidine-2-carboxamide]
11 | 10 nM | 952 nM | 1 nM | Cc1cc(C(=O)N[C@H]2CC[C@H](C)CC2)nc(-c2cncn2C)n1 [Compound 123, 6-methyl-2-(1-methyl-1H-imidazol-5-yl)-N-((1r,4r)-4-methylcyclohexyl)pyrimidine-4-carboxamide]
12 | 25 nM | 769 nM | 18 nM | Cn1cncc1-c1cccc(C(=O)Nc2cccnc2)n1 [Compound 59, 6-(1-Methyl-1H-imidazol-5-yl)-N-(pyridin-3-yl)picolinamide]
13 | 389 nM | 8550 nM | 110 nM | Cc1cc(C(F)(F)F)ncc1NC(=O)c1cccc(-n2ccnc2)n1 [Compound 29, 6-(1H-imidazol-1-yl)-N-(4-methyl-6-(trifluoromethyl)pyridin-3-yl)picolinamide]
14 | 2.8 nM | 749 nM | 1 nM | COCCOc1cc(C(=O)Nc2ccc(C(F)(F)F)nc2)nc(-n2ccnc2)c1 [Compound 245, 6-(1H-imidazol-1-yl)-4-(2-methoxyethoxy)-N-(6-(trifluoromethyl)pyridin-3-yl)picolinamide]
15 | 313 nM | 13700 nM | 228 nM | Cc1cccc(NC(=O)c2cccc(-n3ccnc3)n2)n1 [Compound 33, 6-(1H-imidazol-1-yl)-N-(6-methylpyridin-2-yl)picolinamide]

The remaining lines, values behind:

Row | Structure (SMILES) | IC50 (human CD38) | IC50 [1] | IC50 (mouse CD38)
16 | COc1cc(C(=O)N[C@H]2CC[C@H](OC)CC2)nc(-c2cncs2)n1 [Compound 130, 6-methoxy-N-((1r,4r)-4-methoxycyclohexyl)-2-(thiazol-5-yl)pyrimidine-4-carboxamide] | 488 nM | 10300 nM | 44 nM
17 | COCCO[C@H]1CC[C@H](NC(=O)c2cc(C(F)(F)F)nc(-n3ccnc3)n2)CC1 [Compound 157, 2-(1H-imidazol-1-yl)-N-((1r,4r)-4-(2-methoxyethoxy)cyclohexyl)-6-(trifluoromethyl)pyrimidine-4-carboxamide] | 121 nM | 7230 nM | 48 nM
18 | C[C@H]1CC[C@H](NC(=O)c2nccc(-n3ccnc3)n2)CC1 [Compound 146, 4-(1H-imidazol-1-yl)-N-((1r,4r)-4-methylcyclohexyl)pyrimidine-2-carboxamide] | 62 nM | 1700 nM | 23 nM
19 | O=C(N[C@H]1CC[C@H](OC(F)F)CC1)c1nccc(-n2ccnc2)n1 [Compound 293, N-((1r,4r)-4-(difluoromethoxy)cyclohexyl)-4-(1H-imidazol-1-yl)pyrimidine-2-carboxamide] | 58.5 nM | 2830 nM | 36.2 nM
20 | COC(=O)N1CC2(CC(NC(=O)c3cccc(-n4ccnc4)n3)C2)C1 [Compound 48, methyl 6-(6-(1H-imidazol-1-yl)picolinamido)-2-azaspiro[3.3]heptane-2-carboxylate] | 244 nM | 3760 nM | 46 nM
21 | O=C(N[C@H]1CC[C@H](NCC(F)(F)F)CC1)c1nccc(-n2ccnc2)n1 [Compound 265, 4-(1H-imidazol-1-yl)-N-((1r,4r)-4-((2,2,2-trifluoroethyl)amino)cyclohexyl) pyrimidine-2-carboxamide] | 83.4 nM | 4170 nM | 35.9 nM
22 | O=C(NC1CCC(F)(F)CC1)c1cccc(-n2ccnc2)n1 [Compound 136, N-(4,4-difluorocyclohexyl)-6-(1H-imidazol-1-yl)picolinamide] | 23 nM | 1540 nM | 6 nM
23 | Cn1cncc1-c1nc(C(=O)N[C@H]2CC[C@H](C(F)F)CC2)cc(C2CCOCC2)n1 [Compound 227, N-((1r,4r)-4-(difluoromethyl)cyclohexyl)-2-(1-methyl-1H-imidazol-5-yl)-6-(tetrahydro-2H-pyran-4-yl)pyrimidine-4-carboxamide] | 9.3 nM | 2070 nM | 2.4 nM
24 | CC(=O)N1CC2(CC(NC(=O)c3cccc(-n4ccnc4)n3)C2)C1 [Compound 47, N-(2-acetyl-2-azaspiro[3.3]heptan-6-yl)-6-(1H-imidazol-1-yl)picolinamide] | 417 nM | 9150 nM | 100 nM
25 | COC(=O)N1CCC(NC(=O)c2cccc(-n3ccnc3)n2)CC1 [Compound 45, methyl 4-(6-(1H-imidazol-1-yl)picolinamido)piperidine-1-carboxylate] | 82 nM | 4690 nM | 44 nM
26 | C[C@H]1CC[C@H](NC(=O)c2cncc(-n3ccnc3)n2)CC1 [Compound 102, 6-(1H-imidazol-1-yl)-N-((1r,4r)-4-methylcyclohexyl)pyrazine-2-carboxamide] | 23 nM | 1010 nM | 7 nM
27 | Cn1cncc1-c1ccnc(C(=O)Nc2ccc(OC3CC(F)(F)C3)nc2)n1 [Compound 319] | 3.6 nM | 964 nM | 6 nM
28 | Cn1cncc1-c1nc(C(=O)N[C@H]2C[C@H](C(C)(C)O)C2)cc(C2CCOCC2)n1 [Compound 283, N-((1r,3r)-3-(2-hydroxypropan-2-yl)cyclobutyl)-2-(1-methyl-1H-imidazol-5-yl)-6-(tetrahydro-2H-pyran-4-yl)pyrimidine-4-carboxamide] | 18.4 nM | 5690 nM | 4.3 nM
29 | O=C(NC1CC2C(C1)C2(F)F)c1cccc(-n2ccnc2)n1 (stereo not drawn) [Compound 135, N-(6,6-difluorobicyclo[3.1.0]hexan-3-yl)-6-(1H-imidazol-1-yl)picolinamide] | 76 nM | 1320 nM | 15 nM
